What was measured:
[1] = cells; assay type: functional, cell-based; details: Homo sapiens, KMS-11, 72 h
Description: Antiproliferative activity against luciferase expressing human KMS11 cells after 72 hrs by Cell-TiterGlo assay

[2] = in vitro; details: human, microsomes
[3] = in vitro; details: rat, microsomes
[4] = in vitro; details: human, microsomes; remark: listed apart in the source
[5] = in vitro; details: rat, microsomes; remark: listed apart in the source
[6] = target: Serine/threonine-protein kinase pim-1 (Homo sapiens, UniProt P11309)
[7] = cells; assay type: cell-based, KMS11; details: Homo sapiens, KMS-11, 1 h
[8] = target: Serine/threonine-protein kinase pim-3 (Homo sapiens, UniProt Q86V86)

Chain of Serine/threonine-protein kinase pim-1 (P11309 whole entry): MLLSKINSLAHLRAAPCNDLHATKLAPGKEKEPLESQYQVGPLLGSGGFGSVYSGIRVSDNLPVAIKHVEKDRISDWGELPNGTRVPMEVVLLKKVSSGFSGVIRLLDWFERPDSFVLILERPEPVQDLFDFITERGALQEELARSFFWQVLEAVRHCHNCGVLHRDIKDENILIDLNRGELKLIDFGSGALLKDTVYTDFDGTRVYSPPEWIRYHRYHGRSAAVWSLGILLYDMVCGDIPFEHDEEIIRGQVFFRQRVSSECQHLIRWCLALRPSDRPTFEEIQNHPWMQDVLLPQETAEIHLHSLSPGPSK

In the case of N[C@@H]1CCCN(c2c(/C=C3\SC(=O)NC3=O)cccc2-c2ccccc2)C1, the EC50 [1] is reported as 670 nM.

In the case of C[C@@H]1C[C@H](N)C[C@H](c2ccncc2NC(=O)c2ccc(F)c(-c3ccccc3F)n2)C1, the half-life at 0.5 h, 1 µM [2] is reported as over 180 min, the half-life at 0.5 h, 1 µM [3] is reported as 92 min and the CLhep predicted at 0.5 h, 1 µM [4] is reported as under 6 mL/min/kg.

Work on Nc1ccc(C2CCCCC2)nc1C(=O)Nc1cnccc1[C@@H]1CCC[C@H](N)C1 yielded a half-life at 0.5 h, 1 µM [2] of 85 min, a half-life at 0.5 h, 1 µM [3] of 8 min and a CLhep predicted at 0.5 h, 1 µM [4] of 10 mL/min/kg.

In the case of N[C@H]1CCCN(c2ccncc2NC(=O)c2csc(-c3c(F)cccc3F)n2)C1, the half-life at 0.5 h, 1 µM [2] is reported as 70 min, the CLhep predicted at 0.5 h, 1 µM [5] is reported as 49 mL/min/kg and the half-life at 0.5 h, 1 µM [3] is reported as 6 min. The EC50 [1] was 1200 nM and the CLhep predicted at 0.5 h, 1 µM [4] was 11 mL/min/kg.

For C[C@@H]1C[C@H](N)CN(c2ccncc2NC(=O)c2csc(-c3c(F)cccc3F)n2)C1, the half-life at 0.5 h, 1 µM [2] was 49 min, the CLhep predicted at 0.5 h, 1 µM [5] was 47 mL/min/kg and the half-life at 0.5 h, 1 µM [3] was 9 min. It also gave an EC50 [1] of 390 nM and a CLhep predicted at 0.5 h, 1 µM [4] of 13 mL/min/kg.

N[C@H]1CCC[C@@H](c2ccncc2NC(=O)c2csc(-c3c(F)cccc3F)n2)C1 showed a half-life at 0.5 h, 1 µM [2] of 121 min, a CLhep predicted at 0.5 h, 1 µM [5] of 21 mL/min/kg and a half-life at 0.5 h, 1 µM [3] of 85 min. The EC50 [1] was 5000 nM and the CLhep predicted at 0.5 h, 1 µM [4] was 8 mL/min/kg.

For C[C@@H]1C[C@H](N)C[C@H](c2ccncc2NC(=O)c2csc(-c3c(F)cccc3F)n2)C1, the half-life at 0.5 h, 1 µM [2] was over 180 min, the CLhep predicted at 0.5 h, 1 µM [5] was 24 mL/min/kg and the half-life at 0.5 h, 1 µM [3] was 65 min. It also gave a Ki [6] of under 1 nM, an EC50 [7] of 320 nM and a Ki [8] of 4 nM. It also gave an EC50 [1] of 910 nM and a CLhep predicted at 0.5 h, 1 µM [4] of under 6 mL/min/kg.

C[C@@H]1C[C@H](N)CN(c2ccncc2NC(=O)c2ccc(F)c(-c3ccccc3F)n2)C1 showed a half-life at 0.5 h, 1 µM [2] of 13 min, a CLhep predicted at 0.5 h, 1 µM [5] of 45 mL/min/kg and a half-life at 0.5 h, 1 µM [3] of 11 min. The Ki [8] was under 3 nM and the CLhep predicted at 0.5 h, 1 µM [4] was 18 mL/min/kg.

Compound N[C@H]1CCCN(c2ccncc2NC(=O)c2ccc(F)c(-c3c(F)cccc3F)n2)C1 has a half-life at 0.5 h, 1 µM [2] of 25 min, a CLhep predicted at 0.5 h, 1 µM [5] of 44 mL/min/kg and a half-life at 0.5 h, 1 µM [3] of 13 min. For the same compound, the Ki [6] was under 1 nM, the Ki [8] was under 3 nM and the EC50 [1] was 1400 nM. It also gave a CLhep predicted at 0.5 h, 1 µM [4] of 16 mL/min/kg.

Nc1ccc(C2CCCCC2)nc1C(=O)Nc1cnccc1N1CCC[C@H](N)C1 showed a half-life at 0.5 h, 1 µM [2] of 14 min, a CLhep predicted at 0.5 h, 1 µM [5] of 52 mL/min/kg and a half-life at 0.5 h, 1 µM [3] of 3 min. For the same compound, the Ki [6] was under 1 nM, the Ki [8] was 3 nM and the CLhep predicted at 0.5 h, 1 µM [4] was 18 mL/min/kg.

In the case of C[C@@H]1C[C@H](N)CN(c2ccncc2NC(=O)c2ccc(F)c(-c3c(F)cccc3F)n2)C1, the half-life at 0.5 h, 1 µM [2] is reported as 40 min, the CLhep predicted at 0.5 h, 1 µM [5] is reported as 40 mL/min/kg and the half-life at 0.5 h, 1 µM [3] is reported as 20 min. The CLhep predicted at 0.5 h, 1 µM [4] was 14 mL/min/kg.

In the case of CN1CCC(CNc2ccc3ncc(-c4cccc(OC(F)(F)F)c4)n3n2)CC1 [SGI-1776], the EC50 [1] is reported as 5000 nM.

Reference: ChEMBL document CHEMBL3745712, “Identification of N-(4-((1R,3S,5S)-3-Amino-5-methylcyclohexyl)pyridin-3-yl)-6-(2,6-difluorophenyl)-5-fluoropicolinamide (PIM447), a Potent and Selective Proviral Insertion Site of Moloney Murine Leukemia (PIM) 1, 2, and 3 Kinase Inhibitor in Clinical Trials for Hematological Malignancies” (J Med Chem, 2015)
